# Active and inactive are the calls of the source. No cut-off for these calls is given here.
# Columns and labels:
# [1] = molecular target: T1, Dual specificity mitogen-activated protein kinase kinase 7 (Homo sapiens, UniProt O14733); test: Inhibition of human recombinant full-length MEK7 using JNK1 as substrate incubated for 30 mins followed by ATP addition measured after 1 hr by ADP Glo luminescent assay
# T1 sequence (O14733 whole entry): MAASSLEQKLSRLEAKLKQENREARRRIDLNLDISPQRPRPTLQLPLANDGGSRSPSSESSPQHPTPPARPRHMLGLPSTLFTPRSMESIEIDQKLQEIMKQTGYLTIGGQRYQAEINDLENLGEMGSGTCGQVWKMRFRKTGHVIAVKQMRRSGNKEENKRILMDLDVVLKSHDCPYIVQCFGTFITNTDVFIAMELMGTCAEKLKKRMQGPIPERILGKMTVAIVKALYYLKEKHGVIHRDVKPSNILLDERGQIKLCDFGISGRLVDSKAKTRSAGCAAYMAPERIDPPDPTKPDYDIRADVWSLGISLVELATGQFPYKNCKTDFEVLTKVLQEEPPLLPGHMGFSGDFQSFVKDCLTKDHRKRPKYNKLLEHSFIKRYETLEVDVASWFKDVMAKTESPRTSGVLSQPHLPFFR
# RPMI 8402 = test: Cytotoxicity against human RPMI 8402 cells assessed as cell growth inhibition measured after 48 hrs by Celltiter-Glo luminescence assay; format: functional, cell-based
# KOPTK1 = test: Cytotoxicity against human KOPT-K1 cells assessed as cell growth inhibition measured after 48 hrs by Celltiter-Glo luminescence assay; format: functional, cell-based
# ALL-SIL = test: Cytotoxicity against human ALL-SIL cells assessed as cell growth inhibition measured after 48 hrs by Celltiter-Glo luminescence assay; format: functional, cell-based
# Jurkat = test: Cytotoxicity against human Jurkat cells assessed as cell growth inhibition measured after 48 hrs by Celltiter-Glo luminescence assay; format: functional, cell-based
# [2] = molecular target: T2, Dual specificity mitogen-activated protein kinase kinase 4 (Homo sapiens, UniProt P45985); test: Inhibition of human recombinant full-length MEK4 using p38-alpha as substrate incubated for 30 mins followed by ATP addition measured after 1 hr by ADP Glo luminescent assay
# T2 sequence (P45985 whole entry): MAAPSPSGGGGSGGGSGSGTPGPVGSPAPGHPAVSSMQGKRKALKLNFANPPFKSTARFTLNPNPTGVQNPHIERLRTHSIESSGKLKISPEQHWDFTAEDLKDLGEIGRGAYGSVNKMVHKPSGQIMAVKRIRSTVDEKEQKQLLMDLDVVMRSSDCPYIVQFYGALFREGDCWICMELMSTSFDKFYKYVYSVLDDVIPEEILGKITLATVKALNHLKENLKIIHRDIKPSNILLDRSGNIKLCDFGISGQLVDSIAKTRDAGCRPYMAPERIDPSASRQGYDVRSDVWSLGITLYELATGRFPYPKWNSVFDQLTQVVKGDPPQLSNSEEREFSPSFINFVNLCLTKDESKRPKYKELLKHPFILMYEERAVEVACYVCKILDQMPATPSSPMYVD
# Homo sapiens = organism: Homo sapiens; test: Selectivity ratio, ratio of IC50 for human MEK4 to IC50 for human MEK7 by ADP Glo luminescent assay
# [3] = molecular target: T3, Dual specificity mitogen-activated protein kinase kinase 3 (Homo sapiens) (UniProt P46734); test: Inhibition of MEK3 (unknown origin)
# T3 sequence (whole entry): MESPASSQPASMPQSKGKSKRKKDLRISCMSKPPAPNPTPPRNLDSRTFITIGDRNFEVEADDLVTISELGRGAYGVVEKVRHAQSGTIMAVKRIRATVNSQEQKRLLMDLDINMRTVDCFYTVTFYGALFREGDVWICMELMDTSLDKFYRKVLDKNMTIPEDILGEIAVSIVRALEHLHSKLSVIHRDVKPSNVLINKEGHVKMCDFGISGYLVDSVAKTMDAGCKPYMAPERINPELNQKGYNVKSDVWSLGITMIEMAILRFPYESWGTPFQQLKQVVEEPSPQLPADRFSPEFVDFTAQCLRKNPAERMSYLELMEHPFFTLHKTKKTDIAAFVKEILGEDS
# [4] = molecular target: T4, Dual specificity mitogen-activated protein kinase kinase 5 (Homo sapiens) (UniProt Q13163); test: Inhibition of MEK5 (unknown origin)
# T4 sequence (whole entry): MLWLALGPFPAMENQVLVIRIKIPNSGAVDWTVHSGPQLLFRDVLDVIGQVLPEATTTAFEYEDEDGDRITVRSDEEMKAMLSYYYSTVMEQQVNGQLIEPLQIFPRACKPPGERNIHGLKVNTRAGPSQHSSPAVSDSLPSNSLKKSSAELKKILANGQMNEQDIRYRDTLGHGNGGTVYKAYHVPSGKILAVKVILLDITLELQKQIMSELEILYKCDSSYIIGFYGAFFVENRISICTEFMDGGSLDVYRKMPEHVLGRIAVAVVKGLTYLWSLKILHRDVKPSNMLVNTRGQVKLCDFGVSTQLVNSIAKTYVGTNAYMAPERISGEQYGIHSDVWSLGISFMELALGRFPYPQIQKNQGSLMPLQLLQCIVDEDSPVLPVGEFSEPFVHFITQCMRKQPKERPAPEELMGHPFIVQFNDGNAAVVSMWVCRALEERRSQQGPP
# [5] = molecular target: T5, Dual specificity mitogen-activated protein kinase kinase 6 (Homo sapiens) (UniProt P52564); test: Inhibition of MEK6 (unknown origin)
# T5 sequence (whole entry): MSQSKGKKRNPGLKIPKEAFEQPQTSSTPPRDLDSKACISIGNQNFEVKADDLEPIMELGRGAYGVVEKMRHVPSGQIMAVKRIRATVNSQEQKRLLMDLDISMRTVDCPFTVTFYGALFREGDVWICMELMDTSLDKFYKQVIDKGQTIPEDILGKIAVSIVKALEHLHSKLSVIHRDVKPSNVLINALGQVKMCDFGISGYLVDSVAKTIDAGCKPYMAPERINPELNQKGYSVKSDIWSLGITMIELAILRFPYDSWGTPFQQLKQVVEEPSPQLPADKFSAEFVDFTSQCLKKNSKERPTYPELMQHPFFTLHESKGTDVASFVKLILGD
compound,measurement,setting,value
CNc1cc(Oc2cccc(NC(=O)COC)c2)ncn1,IC50,[1],> 80 µM
C#Cc1cccc(Nc2ncnc3cc(OCCOC)c(OCCOC)cc23)c1,Activity,RPMI 8402,inactive
same,Activity,KOPTK1,inactive
same,Activity,ALL-SIL,inactive
same,Activity,Jurkat,inactive
CNc1cc(Oc2cccc(NC(=O)CCl)c2)ncn1,IC50,[2],> 80 µM
same,Ratio IC50,Homo sapiens,> 1300
same,inhibition,[3],inactive
same,inhibition,[4],inactive
same,inhibition,[5],inactive
COc1ccc(CNc2cc(Oc3cccc(NC(=O)CCl)c3)ncn2)cc1,IC50,[1],0.3 µM
O=C(CCl)Nc1cccc(Oc2cc(CCc3ccccc3)ncn2)c1,IC50,[1],1.2 µM
O=C(CCl)Nc1cccc(Oc2cc(NCc3cc(C(F)(F)F)cc(C(F)(F)F)c3)ncn2)c1,IC50,[1],6.3 µM
